In brackets after ≈: the same amount, converted by molar mass. Several values for one entry are separate records, joined by “and”; a condition that tells them apart may be missing. Identical values can stand only once. Like-named read-outs stand apart in the source and are kept apart here.
What was measured:
P388 ascitic leukemia = experiment: Activity against P388 ascitic leukemia in mice, ip
Experimental: Activity against P388 ascitic leukemia^1
^1 Mice were injected ip with 10^6 leukemia cells/mouse. Data of
^2 Treatment ip on day 1 after tumor inoculum.
(§1) ^3 Medium survival time of treated animals/medium survival time of […]

L1210 leukemia = system: L1210 leukemia
Excerpt: as §1

Gross leukemia = experiment: Activity against disseminated Gross leukemia in mice, i.v. and oral; details: for T/C % (survival time treated/controls × 100) / Toxic deaths: day 1
Excerpt: as §1

HeLa cells = HeLa cells cloning efficiency in vitro, treatment for 24 hours; details: for IC50: read-out: ID50
experimental leukemias = experiment: In vivo antitumor activity/potency versus doxorubicin (general statements); set-up: species or system mice
Excerpt: In vivo the compound has been compared to doxorubicin against three different experimental leukemias of mice.

[1] = Homo sapiens, HeLa, 24 h, read-out: % of controls (HeLa cells cloning efficiency)

COc1cccc2c1C(=O)c1c(O)c3c(c(O)c1C2=O)C[C@@](O)(C(=O)CO)C[C@@H]3O[C@H]1C[C@H](N)[C@H](O)[C@H](C)O1 [Doxorubicin, doxorubicin, reference compound]
T/C % (survival time treated/controls × 100) (P388 ascitic leukemia; 4.4 mg/kg ip on day 1): 210% and 180% | Toxic deaths (P388 ascitic leukemia; 4.4 mg/kg ip on day 1): 0/16 | T/C % (survival time treated/controls × 100) (P388 ascitic leukemia; 6.6 mg/kg ip on day 1): 220% and 190% | Toxic deaths (P388 ascitic leukemia; 6.6 mg/kg ip on day 1): 0/16 | T/C % (survival time treated/controls × 100) (P388 ascitic leukemia; 10.0 mg/kg ip on day 1): 225% and 220% | Toxic deaths (P388 ascitic leukemia; 10.0 mg/kg ip on day 1): 0/16 | T/C % (survival time treated/controls × 100) (L1210 leukemia; 10 mg/kg iv on day 1): 133% | Toxic deaths (L1210 leukemia; 10 mg/kg iv on day 1): 0/10 | T/C % (survival time treated/controls × 100) (L1210 leukemia; 13 mg/kg iv on day 1): 150% | Toxic deaths (L1210 leukemia; 13 mg/kg iv on day 1): 0/9 | T/C % (survival time treated/controls × 100) (L1210 leukemia; 16.9 mg/kg iv on day 1): 166% | Toxic deaths (L1210 leukemia; 16.9 mg/kg iv on day 1): 1/10 | T/C % (survival time treated/controls × 100) (Gross leukemia; i.v. 13 mg/kg): 200% | Toxic deaths (Gross leukemia; i.v. 13 mg/kg): 0/18 | Toxic deaths (Gross leukemia; i.v. 16.9 mg/kg): 0/18 | T/C % (survival time treated/controls × 100) (Gross leukemia; i.v. 16.9 mg/kg, 16.9 mg/kg): 233% and 216% | activity at 0.0031 µg/mL (HeLa cells; [1]): 102% | activity at 0.0062 µg/mL (HeLa cells; [1]): 68% | activity at 0.0125 µg/mL (HeLa cells; [1]): 44% | IC50 (HeLa cells; Homo sapiens, HeLa, 24 h): ~10 ng/mL (≈ 18.4 nM)

C[C@H]1C[C@@H](N)C[C@H](O[C@H]2C[C@](O)(C(=O)CO)Cc3c(O)c4c(c(O)c32)C(=O)c2ccccc2C4=O)O1 [XOO-0144, 4-demethoxy-4'-deoxydoxorubicin]
T/C % (survival time treated/controls × 100) (P388 ascitic leukemia; 0.04 mg/kg ip on day 1): 130% | T/C % (survival time treated/controls × 100) (P388 ascitic leukemia; 0.12 mg/kg ip on day 1): 170% | T/C % (survival time treated/controls × 100) (P388 ascitic leukemia; 0.25 mg/kg ip on day 1): 205% and 195% | T/C % (survival time treated/controls × 100) (P388 ascitic leukemia; 0.5 mg/kg ip on day 1): 235% | T/C % (survival time treated/controls × 100) (P388 ascitic leukemia; 1 mg/kg ip on day 1): 75% and 90% | Toxic deaths (P388 ascitic leukemia; 1 mg/kg ip on day 1): 7/16 | T/C % (survival time treated/controls × 100) (P388 ascitic leukemia; 5 mg/kg ip on day 1): 55% | Toxic deaths (P388 ascitic leukemia; 5 mg/kg ip on day 1): 8/8 | optimal doses (P388 ascitic leukemia; administered ip): 0.25 to 0.5 mg/kg | potency relative to doxorubicin, ip (P388 ascitic leukemia; administered ip, mice bearing P388 ascitic leukemia): 10-20 times | antitumor activity compared with doxorubicin (P388 ascitic leukemia; ip, 0.25-0.5 mg/kg vs doxorubicin from 4 to 10 mg/kg): antitumor activity of the same order of magnitude as that of doxorubicin | T/C % (survival time treated/controls × 100) (L1210 leukemia; 0.9 mg/kg iv on day 1): 183% | Toxic deaths (L1210 leukemia; 0.9 mg/kg iv on day 1): 0/10 | T/C % (survival time treated/controls × 100) (L1210 leukemia; 1.2 mg/kg iv on day 1): 191% | Toxic deaths (L1210 leukemia; 1.2 mg/kg iv on day 1): 0/10 | T/C % (survival time treated/controls × 100) (L1210 leukemia; 1.56 mg/kg iv on day 1): 116% | Toxic deaths (L1210 leukemia; 1.56 mg/kg iv on day 1): 6/10 | activity against L1210 leukemia in comparison with doxorubicin (summary, words) (L1210 leukemia; in comparison with doxorubicin): more active against L1210 leukemia | tolerated doses (L1210 leukemia; iv): 0.9 mg/kg and 1.2 mg/kg | effectiveness compared with doxorubicin (L1210 leukemia; iv, tolerated doses 0.9 and 1.2 mg/kg vs doxorubicin 13 mg/kg): more effective than doxorubicin | potency relative to doxorubicin, iv (experimental leukemias; administered iv): about 10 times | potency in vivo in comparison with doxorubicin (summary, words) (experimental leukemias; both i.p. and i.v. administration): more potent in vivo (both i.p. and i.v. administration) | potency in vivo relative to doxorubicin (experimental leukemias; in vivo, with reference to doxorubicin): about 10 times | activity by oral route (experimental leukemias): active also when administered orally | activity by oral route (experimental leukemias; listed as 4-demethoxy-4'-deoxydoxorubicin): active also when given by oral route | T/C % (survival time treated/controls × 100) (Gross leukemia; i.v. 0.35 mg/kg): 100% | Toxic deaths (Gross leukemia; i.v. 0.35 mg/kg): 0/8 | T/C % (survival time treated/controls × 100) (Gross leukemia; i.v. 0.53 mg/kg): 108% | Toxic deaths (Gross leukemia; i.v. 0.53 mg/kg): 0/8 | T/C % (survival time treated/controls × 100) (Gross leukemia; i.v. 0.8 mg/kg): 116% | Toxic deaths (Gross leukemia; i.v. 0.8 mg/kg): 0/10 | Toxic deaths (Gross leukemia; i.v. 1.2 mg/kg): 0/20 | T/C % (survival time treated/controls × 100) (Gross leukemia; i.v. 1.2 mg/kg, 1.2 mg/kg): 150% and 208% | T/C % (survival time treated/controls × 100) (Gross leukemia; i.v. 1.8 mg/kg): 133% | Toxic deaths (Gross leukemia; i.v. 1.8 mg/kg): 9/10 | T/C % (survival time treated/controls × 100) (Gross leukemia; i.v. 2.7 mg/kg): 116% | Toxic deaths (Gross leukemia; i.v. 2.7 mg/kg): 10/10 | T/C % (survival time treated/controls × 100) (Gross leukemia; oral 2.7 mg/kg): 150% | Toxic deaths (Gross leukemia; oral 2.7 mg/kg): 1/8 | T/C % (survival time treated/controls × 100) (Gross leukemia; oral 5.4 mg/kg): 133% | Toxic deaths (Gross leukemia; oral 5.4 mg/kg): 4/6 | T/C % (survival time treated/controls × 100) (Gross leukemia; oral 10.8 mg/kg): 100% | Toxic deaths (Gross leukemia; oral 10.8 mg/kg): 5/5 | activity by oral route (Gross leukemia; oral, Gross leukemia): active also when given by oral route | cytotoxicity relative to doxorubicin (HeLa cells; HeLa cells cloning efficiency, more cytotoxic than doxorubicin): about 25 times | activity at 20 pg/mL (HeLa cells; [1]): 102% | activity at 90 pg/mL (HeLa cells; [1]): 72% | activity at 0.00039 µg/mL (HeLa cells; [1]): 69% | activity at 0.0015 µg/mL (HeLa cells; [1]): 26% | activity at 0.0062 µg/mL (HeLa cells; [1]): 1% | activity at 0.025 µg/mL (HeLa cells; [1]): 0% | IC50 (HeLa cells; Homo sapiens, HeLa, 24 h): ~0.4 ng/mL (≈ 0.804 nM) | potency in vitro in comparison with doxorubicin (summary, words) (HeLa cells; in comparison with doxorubicin): more potent in vitro | potency in vitro relative to doxorubicin (HeLa cells; in vitro, with reference to doxorubicin): 10-20 times
